Laboratory results from patent US8796457B2, “Compound useful for the treatment of degenerative and inflammatory diseases” (Galapagos NV, priority 2009, dated 2014).

Key:
[1] = molecular target: Recombinant human JAK1 (catalytic domain) (Homo sapiens (Human), UniProt P23458); assay: JAK1 inhibition assay; type: biochemical; conditions: average ± standard error of the mean; 7 μM ATP
Procedure: After 60 min at room temperature, reactions were stopped by adding 20 μL/well of detection mixture (1× detection buffer (Perkin Elmer, catalog number CR97-100C), 0.5 nM Europium-anti-phosphotyrosine (PT66) (Perkin Elmer, catalog number AD0068), 10 mM EDTA). […] Kinase activity was calculated by subtracting relative fluorescence units (RFU) obtained in the presence of a positive control inhibitor (10 μM staurosporine) from RFU obtained in the presence of vehicle.
Dose dilution series were prepared for the compounds enabling the testing of dose-response effects in the JAK1 assay and the calculation of the IC50 for the compound. […] The data are expressed as the average IC50 from the assays±standard error of the mean.

JAK1 = JAK1 (Homo sapiens (Human), UniProt P23458); assay: JAK1 Ki determination assay (Ulight-JAK-1 peptide); type: biochemical; conditions: Lineweaver-Burk; Ulight-JAK-1 (Tyr1023) peptide, alternative protocol
Sequence of JAK1 (P23458 866-1154): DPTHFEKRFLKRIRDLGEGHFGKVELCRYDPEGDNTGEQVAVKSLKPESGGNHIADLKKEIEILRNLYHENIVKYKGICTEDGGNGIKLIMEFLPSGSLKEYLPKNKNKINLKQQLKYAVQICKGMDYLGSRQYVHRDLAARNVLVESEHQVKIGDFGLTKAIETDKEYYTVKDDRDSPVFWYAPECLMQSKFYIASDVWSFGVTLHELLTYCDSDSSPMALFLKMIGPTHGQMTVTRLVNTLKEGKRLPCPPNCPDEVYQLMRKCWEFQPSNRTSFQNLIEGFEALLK
Procedure: Alternatively, for the determination of Ki, different amounts of inhibitor were mixed with the enzyme and the enzymatic reaction was followed as a function of ATP concentration. The Ki was determined by means of double reciprocal plotting of Km vs compound concentration (Lineweaver-Burk plot). 1 ng of JAK1 (Invitrogen, PV4774) was used in the assay. The substrate was 50 nM Ulight-JAK-1 ([MUT]) Peptide (Perkin Elmer, TRF0121) The reaction was performed in 25 mM MOPS pH 6.8, 0.01%, 2 mM DTT, 5 mM MgCl2 Brij-35 with varying concentrations of ATP and compound. Phosphorylated substrate was measured using an Eu-labeled anti-phosphotyrosine antibody PT66 (Perkin Elmer, AD0068). Readout was performed on the envision (Perkin Elmer) with excitation at 320 nm and emission followed at 615 nm and 665 nm.

[2] = molecular target: Recombinant human JAK2 (catalytic domain) (Homo sapiens (Human), UniProt O60674); assay: JAK2 inhibition assay; type: biochemical; conditions: average ± standard error of the mean; 7.5 μM ATP
Sequence of Recombinant human JAK2 (catalytic domain) (O60674 849-1124): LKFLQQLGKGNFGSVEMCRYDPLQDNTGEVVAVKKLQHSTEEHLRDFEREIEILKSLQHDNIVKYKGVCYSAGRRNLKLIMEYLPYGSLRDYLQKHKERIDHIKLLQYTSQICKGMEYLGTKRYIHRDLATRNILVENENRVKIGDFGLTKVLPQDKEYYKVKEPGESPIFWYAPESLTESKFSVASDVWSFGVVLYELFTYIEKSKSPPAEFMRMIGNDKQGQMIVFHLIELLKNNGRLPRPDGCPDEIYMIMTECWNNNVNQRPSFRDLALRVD
Procedure: Recombinant human JAK2 (catalytic domain, amino acids 866-1154; catalog number PV4210) was purchased from Invitrogen. 0.0125 mU of JAK2 was incubated with 25 nM Ulight-JAK1(tyr1023) peptide (Perkin Elmer catalog number TRF0121) in kinase reaction buffer (41.66 mM HEPES pH7.0, 0.016% Triton X-100, 12.5 mM MgCl2, 3.33 mM DTT, 7.5 μM ATP) with or without 4 μL containing test compound or vehicle (DMSO, 1% final concentration), in a total volume of 20 μL, in a white 384 Luminotrac 200 plate (Greiner, catalog number 781075). […] Readout is performed using the Envision with excitation at 320nm and measuring emission at 615 nm (Perkin Elmer). Kinase activity was calculated by subtracting relative fluorescence units (RFU) obtained in the presence of a positive control inhibitor (10 μM staurosporine) from RFU obtained in the presence of vehicle. The ability of a test compound to inhibit this activity was determined as: Percentage inhibition=((RFU determined for sample with test compound present−RFU determined for sample with positive control inhibitor) divided by (RFU determined in the presence of vehicle−RFU determined for sample with positive control inhibitor))*100. […]

JAK3 = JAK3 (Homo sapiens (Human), UniProt P52333); assay: JAK3 Ki determination assay; type: biochemical; conditions: Lineweaver-Burk; polyGT substrate, 33P readout
Sequence of JAK3 (P52333 whole entry): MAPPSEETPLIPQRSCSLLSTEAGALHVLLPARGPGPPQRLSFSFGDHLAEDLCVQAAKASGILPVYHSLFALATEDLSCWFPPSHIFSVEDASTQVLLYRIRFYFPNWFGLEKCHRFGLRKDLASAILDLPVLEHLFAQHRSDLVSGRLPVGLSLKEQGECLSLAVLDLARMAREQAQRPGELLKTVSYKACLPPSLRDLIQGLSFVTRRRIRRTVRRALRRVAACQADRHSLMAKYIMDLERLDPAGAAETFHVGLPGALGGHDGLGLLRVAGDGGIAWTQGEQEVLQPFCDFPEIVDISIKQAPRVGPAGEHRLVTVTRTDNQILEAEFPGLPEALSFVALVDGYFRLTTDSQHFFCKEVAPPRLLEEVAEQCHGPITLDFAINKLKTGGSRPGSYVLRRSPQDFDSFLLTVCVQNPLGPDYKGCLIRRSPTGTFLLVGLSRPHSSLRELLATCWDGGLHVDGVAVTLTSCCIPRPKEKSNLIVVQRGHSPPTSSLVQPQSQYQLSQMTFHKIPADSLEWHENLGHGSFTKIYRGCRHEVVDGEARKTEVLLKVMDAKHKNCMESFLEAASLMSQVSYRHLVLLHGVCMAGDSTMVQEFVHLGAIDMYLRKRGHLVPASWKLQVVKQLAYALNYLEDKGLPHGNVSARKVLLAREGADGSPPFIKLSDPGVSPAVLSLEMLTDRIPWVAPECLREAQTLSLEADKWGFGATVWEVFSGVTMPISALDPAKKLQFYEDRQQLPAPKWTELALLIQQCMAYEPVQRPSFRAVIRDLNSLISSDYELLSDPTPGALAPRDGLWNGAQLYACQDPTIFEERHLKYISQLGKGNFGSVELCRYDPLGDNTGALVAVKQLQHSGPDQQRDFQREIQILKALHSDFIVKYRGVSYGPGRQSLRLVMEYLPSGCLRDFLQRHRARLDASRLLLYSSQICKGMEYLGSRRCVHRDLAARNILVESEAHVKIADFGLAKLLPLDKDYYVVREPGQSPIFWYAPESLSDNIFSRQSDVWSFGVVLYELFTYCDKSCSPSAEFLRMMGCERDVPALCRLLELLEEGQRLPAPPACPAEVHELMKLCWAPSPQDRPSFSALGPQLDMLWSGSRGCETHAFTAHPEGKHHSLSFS
Text: For the determination of Ki, different amounts of inhibitor were mixed with the enzyme and the enzymatic reaction was followed as a function of ATP concentration.

[3] = molecular target: Recombinant human TYK2 catalytic domain (Homo sapiens (Human), UniProt P29597); assay: TYK2 inhibition assay; type: biochemical; conditions: 0.1 μM ATP
Sequence of Recombinant human TYK2 catalytic domain (P29597 871-1187): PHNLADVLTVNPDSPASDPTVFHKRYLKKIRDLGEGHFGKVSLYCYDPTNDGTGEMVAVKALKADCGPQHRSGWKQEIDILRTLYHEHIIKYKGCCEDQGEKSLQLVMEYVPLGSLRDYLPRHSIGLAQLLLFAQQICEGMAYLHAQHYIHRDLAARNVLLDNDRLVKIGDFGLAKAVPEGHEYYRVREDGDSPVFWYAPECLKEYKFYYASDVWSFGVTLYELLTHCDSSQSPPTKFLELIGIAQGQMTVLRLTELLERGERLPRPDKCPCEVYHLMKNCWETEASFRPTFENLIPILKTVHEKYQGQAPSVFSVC
Procedure: Recombinant human TYK2 catalytic domain (amino acids 871-1187; catalog number 08-147) was purchased from Carna biosciences. 5 ng of TYK2 was incubated with 12.5 μg polyGT substrate (Sigma catalog number P0275) in kinase reaction buffer (25 mM Hepes pH 7.5, 100 mM NaCl, 0.2 mM Na3VO4, 0.1% NP-40, 0.1 μM non-radioactive ATP, 0.125 μCi ^33P-gamma-ATP (GE Healthcare, catalog number AH9968) final concentrations) with or without 5 μL containing test compound or vehicle (DMSO, 1% final concentration), in a total volume of 25 μL, in a polypropylene 96-well plate (Greiner, V-bottom). After 90 min at 30° C., reactions were stopped by adding of 25 μL/well of 150 mM phosphoric acid. […] 40 μL/well of Microscint-20 was added, the top of the plates was sealed and readout was performed using the Topcount (Perkin Elmer). Kinase activity was calculated by subtracting counts per minute (cpm) obtained in the presence of a positive control inhibitor (10 μM staurosporine) from cpm obtained in the presence of vehicle. The ability of a test compound to inhibit this activity was determined as: Percentage inhibition=((cpm determined for sample with test compound present−cpm determined for sample with positive control inhibitor) divided by (cpm determined in the presence of vehicle−cpm determined for sample with positive control inhibitor))*100. […]

[4] = tested on: JAK1-dependent pathway (IL-6 stimulated STAT1 phosphorylation, CD4+ cells) in human whole blood; assay: Whole blood assay, IL-6 stimulation, Phospho-STAT1 FACS; type: cell-based
Procedure: A flow cytometry analysis was also performed to establish compound selectivity for JAK1 over JAK2, ex vivo using human whole blood.
Remaining diluted Lyse/Fix buffer was discarded.
The stock solution was stored aliquoted at −80° C.
Control-treated samples received DMSO instead of compound.
Human blood was collected in heparinized tubes.

Sequence of Recombinant human JAK1 (catalytic domain) (P23458 866-1154): as the sequence (P23458 866-1154) above

`CC1(C)CN(C(=O)c2ccc(-c3cccc4nc(NC(=O)C5CC5)nn34)cc2)C1` [Compound 1, Cyclopropanecarboxylic acid{5-[4-(3,3-dimethyl-azetidine-1-carbonyl)-phenyl]-[1,2,4]triazolo[1,5-a]pyridin-2-yl}-amide] was tested, and the IC50 [1] was 0.0066 ± 0.0007 µM, the Ki (JAK1) was 0.0056 µM and the IC50 [2] was 0.067 ± 0.005 µM. It also gave a Ki (JAK3) of 0.188 µM, an IC50 [3] of 0.219 ± 0.037 µM and an IC50 ([4]; Homo sapiens, IL-6 stimulation, FACS, CD4+ cells, mean of 3 healthy volunteers, read-out: pIC50 in the inhibition of STAT1 phosphorylation (converted)) of 0.245 µM. The “selectivity for JAK1 vs. JAK2 (STAT1 vs STAT5)” value ([4]; IL-6 pSTAT1 vs GM-CSF pSTAT5, human whole blood FACS) was 17.6 fold.
